{"source": "patent US7960549B2", "about": "“Solid forms of a chemokine receptor antagonist and methods of use thereof” (priority 2004, dated 2011)", "assay_type_in_all_cases": "physicochemical", "key": {"[1]": {"assay": "Controlled temperature (isothermal) X-ray powder diffraction: thermal stability of the crystalline form", "conditions": "isothermal scans at intervals of 10° C.", "protocol": "X-ray powder diffraction (XRPD) is performed on various samples of the Citrate Salt using one of three instruments. XRPD measurements with Instrument 1 utilize a Siemens-Bruker D5000 Matic powder diffractometer with a Bragg-Brentano (vertical θ-2θ configuration) parafocusing geometry. X-rays are produced from a sealed cobalt anode running at 40 kV and 30 mA. Two lines are typically emitted: CoKα1 (λ=1.7890 Å) and CoKα2 (λ=1.7929 Å). An iron β-filter limits the CoKβ (λ=1.6208 Å) radiation to about 1% of the diffracted beam at the detector. The primary beam passes through a parallel plate collimator (0.2 mm Soller slits), then through a divergence slit (0.2 mm). Diffracted X-rays are detected with a Braun 50 M multichannel linear detector having a 10°-wide detection window in angle 2θ. Scans are performed from 1.5° to 50.0° in 2θ, the scan time being 10 to 40 seconds per degree in 2θ. The error in the 2θ locations are typically within ±0.10 degrees.\nIn Instrument 3, XRPD measurements are performed at different temperatures to elucidate the evolution of crystal structure with temperature. Tests are carried out with a Siemens-Bruker D5000 diffractometer equipped with the Bragg Brentano parafocusing (θ-θ) geometry and an Anton-Paar TTK temperature chamber. Measurements utilize dry nitrogen or nitrogen streams having a particular humidity. The instrument specifications are substantially similar to the Siemens-Bruker D5000 Matic instrument described above (Instrument 1). Temperature is allowed to rise at a rate of 0.05° C./sec. Scans are recorded under the following conditions: a 1.5 to 50.0 degree scan in angle 2θ, 10 to 20 seconds counting time per degree in 2θ. Data are acquired in isotherm mode when the requested temperature is reached."}, "[2]": {"assay": "Prolonged exposure to fixed relative humidity or rinsing with water, XRPD before and after", "conditions": "week long exposure; ambient temperature"}, "[3]": {"assay": "Differential scanning calorimetry (DSC)", "protocol": "Differential scanning calorimetry (DSC) analyses are performed using a T.A Instruments Q1000 thermal analyser. Analyses are carried out using nitrogen purge gas flowing at an average rate of 50 ml/min. A mechanical compressor cools the system, and equilibrates the instruments being used at ambient temperature between analyses. […] Energy calibration is performed with a certified indium calibrator (melting enthalpy of 28.45 J/g), applying a heating rate of 5° C./min. The temperatures identified from DSC scans of a particular sample are accurate to within ±3° C. […] Modulated temperature differential scanning calorimetry (MTDSC) is also used since deconvolution of the total heat flow into reversing and non-reversing heat flows allows the transitions to be easily identified. The samples were submitted to the same experimental temperature program: after the equilibration of the sample at −5° C., the samples were heated through a modulated program from −5° C. to 210° C. at a rate of 1° C./min. […] Experiments are performed using crimped aluminium sample pans or open pans in some cases. The quantity of product analysed is typically between 2 and 13 mg."}, "[4]": {"assay": "Water sorption/desorption cycling (dynamic vapor sorption, DVS) at 25° C., with XRPD before and after", "conditions": "25° C.", "protocol": "Water sorption measurements are performed on a DVS-1 automated gravimetric vapor sorption analyser (Surface Measurement Systems Ltd., London, UK). The DVS-1 measures the uptake and loss of vapor gravimetrically using a Cahn D200 recording ultra-microbalance with a mass resolution of ±0.1 μg. The relative humidity around the sample is controlled by mixing saturated and dry carrier gas streams using mass flow controllers. The temperature is maintained within ±0.1° C. by enclosing the entire system in a temperature-controlled incubator. A sample size between 15 and 20 mg is used. In general, the error in % (w/w) identified in a tested sample is ±0.1% (w/w).\nTwo protocols are utilized to operate the DVS. In one protocol, a sample is dried at 0% relative humidity (RH) to remove any surface water present and establish a dry, baseline mass. Next, the sample is exposed to the following relative humidity profile: 0%, 10%, 20%, 30%, 40%, 50%, 60%, 70%, 80%, 90%, 80%, 70%, 60%, 50%, 40%, 30%, 20%, 10%, 0%. In some instances, this profile is repeated, yielding 4 sets of data going up and down in RH. In another protocol, the sample is first equilibrated at 40% RH, then it was exposed to the following relative humidity profile: 40%, 50%, 60%, 70%, 80%, 90%, 100%, 90%, 80%, 70%, 60%, 50% 40% 30%, 20% 10%, 0%, 10%, 20%, 30%, 40%. […] If equilibrium state is not reached, the change in relative humidity took place automatically after 360 or 600 minutes. From the complete moisture sorption and desorption profile, an isotherm is calculated using the DVS Advanced Analysis Suite v3.6. All experiments were performed at 25° C."}, "[5]": {"assay": "Thermal gravimetric analysis (TGA)", "protocol": "Measurements utilizing thermal gravimetric analysis (TGA) are carried out on a T.A. instruments TGAQ500 analyzer. Mass calibration is performed with 10 and 100 mg certified masses. Temperature calibration is performed with Alumel® and nickel standards (Curie points of respectively 154° C. and 354° C.). Samples are exposed to a constant nitrogen stream of 60 ml/min, and temperature ranges from room temperature to 350° C. at a 5° C./min rate. The quantity of product tested is between 2 and 13 mg. The sample is deposited in an open aluminum sample pan, which is itself placed in a platinum pan. The temperatures identified from TGA scans of a particular sample are accurate to within ±3° C. Simultaneous TGA and DSC measurements are carried out using a […] thermal analysis system produced by the […] corporation. A liquid nitrogen cooling system makes it possible to work at temperatures below 20° C. The emitted gases, upon sample heating, are carried by a transfer capillary tube to a Pfeiffer mass spectrometer, the capillary tube heated to 150° C. The mass spectrometer can analyze molecular fragments at <<m/e>> ratios between 1 and 200 uma. A sample with a mass between 1 and 27 mg is contained in an open concave aluminum sample pan (75 μL capacity) exposed to a nitrogen stream. The sample is heated at a rate of 1 or 5° C./min."}, "[6]": {"conditions": "heating rate 5° C./min, A, B, H: melting/decomposition, E: loss of water and conversion to Form H, ±3° C."}, "[7]": {"conditions": "mixture of Forms A and D, 0.3° C./min, Form D: conversion to Form A, Form A: melting/decomposition"}, "[8]": {"conditions": "sample including Forms A and C, 5° C./min, Form C: conversion to Form A, Form A: melting/decomposition"}, "[9]": {"conditions": "heating rate 5° C./min, sample of the single form (Form H formed from Form E sample), ±3° C."}}, "note": "Structures can show the parent of a compound that is named as a salt."}
{"smiles": "CC(C)(O)c1ccc2c(c1)/C(=C/CCN1CC[C@](O)(c3ccc(Cl)cc3)C(C)(C)C1)c1cccnc1CO2", "note": "[Form A, citrate salt of (S)-4-(4-Chloro-phenyl)-1-{3-[7-(1-hydroxy-1-methyl-ethyl)-11H-10-oxa-1-aza-dibenzo[a,d]cyclohepten-5-ylidene]-propyl}-3,3-dimethyl-piperidin-4-ol]", "values": [{"measurement": "decomposition/melting observed with controlled temperature X-ray powder diffraction", "setting": "[1]", "result": "above 170 °C"}, {"measurement": "crystal form by XRPD after exposure to a relative humidity of 97.5%", "setting": "[2]", "result": "does not change form"}, {"measurement": "DSC endothermic transition, Tmax", "setting": "[3]; heating rate 1° C./min", "result": 167, "unit": "°C"}, {"measurement": "DSC endothermic transition, interpolated beginning temperature", "setting": "[3]; heating rate 1° C./min", "result": 164, "unit": "°C"}, {"measurement": "DSC endothermic transition, Tmax", "setting": "[3]; [6]", "result": 176, "unit": "°C"}, {"measurement": "DSC endothermic transition, interpolated beginning temperature", "setting": "[3]; [6]", "result": 169, "unit": "°C"}, {"measurement": "DSC endothermic transition, Tmax", "setting": "[3]; [7]", "result": 166, "unit": "°C"}, {"measurement": "DSC endothermic transition, interpolated beginning temperature", "setting": "[3]; [7]", "result": "about 160 °C"}, {"measurement": "DSC endothermic transition, Tmax", "setting": "[3]; [8]", "result": 178, "unit": "°C"}, {"measurement": "DSC endothermic transition, interpolated beginning temperature", "setting": "[3]; [8]", "result": "about 173 °C"}, {"measurement": "change in moles of water per mole of anhydrous crystal over relative humidity 0% to 90%", "setting": "[4]", "result": "about 0.8 moles of water per mole of anhydrous crystal"}, {"measurement": "change in mass as the relative humidity is changed between 0% and 90%", "setting": "[4]; dry crystal basis, known to within ±0.1%", "result": "about 1.9%"}, {"measurement": "XRPD before and after water sorption/desorption cycling", "setting": "[4]; two consecutive cycles, 0% to 90% relative humidity", "result": "no structural change"}, {"measurement": "TGA weight loss from ambient temperature to about 100° C.", "setting": "[5]; heating rate 5° C./min", "result": "about 0.23 % (w/w)"}, {"measurement": "TGA weight loss of the transition", "setting": "[5]; heating rate 5° C./min, sample of the single form (Form H formed from Form E sample)", "result": "about 27.5 % (w/w)"}, {"measurement": "TGA weight loss transition, interpolated beginning temperature", "setting": "[5]; [9]", "result": "about 164 °C"}, {"measurement": "TGA weight loss transition, temperature of maximum rate of weight loss", "setting": "[5]; [9]", "result": 183, "unit": "°C"}, {"measurement": "TGA weight loss", "setting": "[5]; sample including Forms A and C", "result": "21.9 % (w/w)"}, {"measurement": "TGA weight loss, temperature of maximum rate of weight loss", "setting": "[5]; sample including Forms A and C", "result": 183, "unit": "°C"}, {"measurement": "TGA weight loss, interpolated beginning temperature", "setting": "[5]; sample including Forms A and C, Form C: conversion away from Form C, Form A: decomposition/melting", "result": 168, "unit": "°C"}]}
